# Measurements published in patent US20230355500A1, “TOPICAL COMPOSITION” (LILIGER LTD, priority 2021, published 2023).
# Legend:
# stratum corneum = details: patients with atopic dermatitis, topical treatment; cited from earlier work
# skin = assay: Concentration needed for skin effect, judged by redness, swelling, tingling and burning sensation; format: in vivo, human
# Experimental: The concentration of the NO-donor in the topical composition of the present invention is determined by the amount that is sufficient to elevate the level of NO in the skin, upon topical application of the composition. Since measuring NO levels in humans is impractical, such elevation can be observed by the appearance of skin redness (erythema), swelling (oedema) a tingling sensation and a burning sensation, which is intensified as the concentration goes up. Furthermore, the occurrence of elevated NO can be noticed by its desirable cosmetic outcomes such as enhanced radiance and reduction of wrinkles.
# For example, in the case of nitroglycerine, 2% is insufficient. At higher concentrations, from about 4%, a slight burning sensation is noticed. This sensation intensifies as the nitroglycerine concentration increases. Thus, in certain embodiments, the concentration of nitroglycerine as NO-donor is between about 4% - about 12%; and in other embodiments it can be from about 4%-8%, or from about 8%-12%.
# In the case of arginine, 5% is insufficient. At higher concentrations, from about 6%, a slight burning sensation is noticed, and it is associated with a tingling sensation. This sensation intensifies as the arginine concentration increases. Thus, in certain embodiments, the concentration of arginine as NO-donor is at least about 6%. For example, between about 6% and about 25%. In other embodiments, the concentration of arginine can be from about 6% to about 8%, or from about 8% to about 10%, or from about 10% to about 14%, or from about 14% to about 18%, or from about 18% to about 25%, or from about 8% to about 25%, or from about 6% to about 12%, or from about 8% to about 12%, or from about 8% to about 10%.
# The concentration of the counter-NO agent is determined so that the skin redness (erythema), swelling (oedema) and burning sensation, induced by the NO-donor is decreased or eliminated. For example, in certain cases, where the counter-NO agent is nicotinamide, 0.5% is insufficient. […]
# ageing skin = assay: Treatment of ageing skin, study #2: day cream used for 28 days, unguided free-form feedback; format: in vivo, human; details: addition of nicotinamide to the arginine cream
# Text: Objectives: To determine the impact of Composition #1 on middle-aged women after 28 days of continuous use. […] They were asked to use the cream daily for 28 days and to provide unguided input (free form) Results: 13 of the 20 women provided feedback that was summarized in the table below.
smiles,measurement,setting,value
Cl.N=C(N)NCCC[C@H](N)C(=O)O [arginine hydrochloride],Clinical symptoms of dry skin,stratum corneum,improvement
same,Skin moisture,stratum corneum,increase
same,Urea in the stratum corneum,stratum corneum,significantly increase
"N=C(N)NCCC[C@H](N)C(=O)O [arginine, L-arginine]",Sufficiency of the concentration as NO-donor,skin; 5% in the topical composition,insufficient
same,Concentration from which a slight burning sensation is noticed,"skin; human, in vivo",at least 6%
NC(=O)c1cccnc1 [nicotinamide],"Sufficiency of the concentration as counter-NO agent (to decrease redness, swelling and burning sensation)","skin; 0.5% in the topical composition, in certain cases",insufficient
same,Previous issues (Study #1) of burning sensation and over-tingling,ageing skin,solved
